# Data as given in patent US8796292B2, “Selective antibacterials for clostridium difficile infections” (GLSynthesis Inc., priority 2009, dated 2014).
# Like-named read-outs stand apart in the source and are kept apart here.
# How the values were obtained:
# Assay in all cases: agar dilution MIC assay of anaerobic bacteria
# [1] = test system: Bi. brevi; assay type: cell-based, Bifidobacterium brevi
# Experimental: (§1) Each compound was assayed against a panel of anaerobic bacteria in culture, consisting of Gram-positive organisms, such as Lactobacilli, Bifidobacteria, Clostridium spp., and Gram-negative bacteria, such as […] fragilis spp., according to guidelines of the Clinical and Laboratory Standards Institute (CLSI document M11-A7, CLSI, Wayne, Pa., 2007). […] One tenth mL of diluted bacteria containing 500-1000 colony-forming units (CFU) was plated and spread, and the plates incubated at 37° C. for 24-48 hours. MIC (minimum inhibitory concentration) is equivalent to the lowest concentration in μg/ml at which growth, i.e., colony formation, is not observed. […] Bacteria were assayed using a reference agar dilution method. Drug dilutions and drug-supplemented agar plates were prepared manually. The test organisms were maintained frozen at −80° C. The isolates were sub-cultured on Supplemented Brucella Agar (SBA) plates in a Bactron II anaerobic chamber and incubated for 48 hours at 35-36° C. in the Bactron II anaerobe chamber. Following inoculation, the drug-supplemented plates were incubated at 35° C. for 48 hours in the anaerobic environment (5% hydrogen, 5% carbon dioxide, 90% nitrogen) of the Bactron II. The MIC in μg/ml was read per Clinical and Laboratory Standards Institute guidelines.
# [2] = test system: E. lentum; assay type: cell-based, Eubacterium lentum; details: Eggerthella lenta, read-out: MIC
# Experimental: as §1
# [3] = test system: Bi. longum; assay type: cell-based, Bifidobacterium longum; details: Bifidobacterium longum, read-out: MIC
# Experimental: as §1
# [4] = test system: Ba. fragilis; assay type: cell-based; details: Bacteroides fragilis
# Experimental: as §1
# [5] = test system: L. acidophilus; assay type: cell-based; details: Lactobacillus acidophilus
# Experimental: as §1
# [6] = test system: L. casei; assay type: cell-based, Lactobacillus casei; details: Lacticaseibacillus casei
# Experimental: as §1
# [7] = test system: C. difficile; assay type: cell-based, Clostridium difficile; details: Clostridioides difficile, read-out: MIC
# Experimental: as §1
# [8] = Bifidobacterium, Bi. brevi, Micromyx Number 3967, Table 1
# [9] = E. lentum, Micromyx Number 1274, Table 1
# [10] = Bi. longum, Micromyx Number 3968, Table 1
# [11] = Ba. fragilis, Micromyx Number 0123 (ATCC strain), Gram negative, Table 1
# [12] = C. difficile, Micromyx Number 1209, Table 1
# [13] = C. difficile, Micromyx Number 3579, Table 1
# [14] = C. difficile, Micromyx Number 3580, Table 1
# [15] = C. difficile, Micromyx Number 3581, Table 1
# [16] = C. difficile, Micromyx Number 3582, Table 1
# [17] = C. difficile, Micromyx Number 3584, Table 1
# [18] = C. difficile, Micromyx Number 3585, Table 1
# [19] = C. difficile, Micromyx Number 3586, Table 1
# [20] = C. difficile, Micromyx Number 3587, Table 1
# [21] = C. difficile, Micromyx Number 3588, Table 1
# [22] = C. difficile, Micromyx Number 3589, Table 1
# [23] = C. difficile, Micromyx Number 3590, Table 1
# [24] = C. difficile, Micromyx Number 3591, Table 1
# [25] = C. difficile, Micromyx Number 3593, Table 1
# [26] = C. difficile, Micromyx Number 3594, Table 1
# [27] = C. difficile, Micromyx Number 3595, Table 1
# [28] = C. difficile, Micromyx Number 4381 (ATCC strain), Table 1
structure (smiles),measurement,setting,value
"CN[C@H](CC(C)C)C(=O)N[C@H]1C(=O)N[C@@H](CC(N)=O)C(=O)N[C@H]2C(=O)N[C@H]3C(=O)N[C@H](C(=O)N[C@H](C(=O)O)c4cc(O)cc(O)c4-c4cc3ccc4O)[C@H](O)c3ccc(c(Cl)c3)Oc3cc2cc(c3O[C@@H]2O[C@H](CO)[C@@H](O)[C@H](O)[C@H]2O[C@H]2C[C@](C)(N)[C@H](O)[C@H](C)O2)Oc2ccc(cc2Cl)[C@H]1O [vancomycin, reference compound]",MIC,[1]; [8],2 µg/mL
same,MIC,[2]; [9],2 µg/mL
same,MIC,[3]; [10],0.5 µg/mL
same,MIC,"[4]; B. fragilis, Micromyx Number 0123 (ATCC strain), Table 2",32 µg/mL
same,MIC,[4]; [11],> 16 µg/mL
same,MIC,"[5]; Micromyx Number 0681, Table 1",2 µg/mL
same,MIC,"[6]; Micromyx Number 1722, Table 1",> 16 µg/mL
same,MIC,"[7]; C. diff. Strain no. 18285, Table 4",1 µg/mL
same,MIC,"[7]; C. diff. Strain no. 19265, Table 4",1 µg/mL
same,MIC,"[7]; C. diff. Strain no. 19273, Table 4",1 µg/mL
same,MIC,"[7]; C. diff. Strain no. 19281, Table 4",1 µg/mL
same,MIC,"[7]; C. diff. Strain no. 19291, Table 4",1 µg/mL
same,MIC,"[7]; C. diff. Strain no. 19369, Table 4",1 µg/mL
same,MIC,"[7]; C. diff. Strain no. 19382, Table 4",4 µg/mL
same,MIC,"[7]; C. diff. Strain no. 19540, Table 4",1 µg/mL
same,MIC,"[7]; C. diff. Strain no. 19580, Table 4",4 µg/mL
same,MIC,"[7]; C. diff. Strain no. 19680, Table 4",1 µg/mL
same,MIC,"[7]; C. diff. Strain no. 19681, Table 4",2 µg/mL
same,MIC,"[7]; C. diff. Strain no. 19683, Table 4",8 µg/mL
same,MIC,"[7]; C. diff. Strain no. 19687, Table 4",1 µg/mL
same,MIC,"[7]; C. diff. Strain no. 20066, Table 4",4 µg/mL
same,MIC,"[7]; C. diff. Strain no. 20152, Table 4",1 µg/mL
same,MIC,"[7]; C. diff. Strain no. 20307, Table 4",2 µg/mL
same,MIC,"[7]; C. diff. Strain no. 20494, Table 4",4 µg/mL
same,MIC,"[7]; C. diff. Strain no. 20680, Table 4",1 µg/mL
same,MIC,"[7]; C. diff. Strain no. 20934, Table 4",4 µg/mL
same,MIC,"[7]; C. diff. Strain no. 21099, Table 4",2 µg/mL
same,MIC,"[7]; C. diff., Micromyx Number 3579, Table 2",1 µg/mL
same,MIC,"[7]; C. diff., Micromyx Number 3580, Table 2",1 µg/mL
same,MIC,"[7]; C. diff., Micromyx Number 3581, Table 2",4 µg/mL
same,MIC,"[7]; C. diff., Micromyx Number 3582 (ATCC strain), Table 2",2 µg/mL
same,MIC,[7]; [12],1 µg/mL
same,MIC,[7]; [13],1 µg/mL
same,MIC,[7]; [14],1 µg/mL
same,MIC,[7]; [15],1 µg/mL
same,MIC,[7]; [16],0.25 µg/mL
same,MIC,[7]; [17],0.5 µg/mL
same,MIC,[7]; [18],0.5 µg/mL
same,MIC,[7]; [19],0.5 µg/mL
same,MIC,[7]; [20],1 µg/mL
same,MIC,[7]; [21],2 µg/mL
same,MIC,[7]; [22],0.5 µg/mL
same,MIC,[7]; [23],1 µg/mL
same,MIC,[7]; [24],2 µg/mL
same,MIC,[7]; [25],0.5 µg/mL
same,MIC,[7]; [26],1 µg/mL
same,MIC,[7]; [27],1 µg/mL
same,MIC,[7]; [28],1 µg/mL
"CCC[C@@H]1C[C@@H](C(=O)N[C@@H]([C@H]2O[C@H](SC)[C@H](O)[C@@H](O)[C@H]2O)[C@H](C)Cl)N(C)C1 [clindamycin, reference compound]",MIC,[1]; [8],0.12 µg/mL
same,MIC,[2]; [9],0.12 µg/mL
same,MIC,[3]; [10],≤ 0.03 µg/mL
same,MIC,[4]; [11],1 µg/mL
same,MIC,"[5]; Micromyx Number 0681, Table 1",4 µg/mL
same,MIC,"[6]; Micromyx Number 1722, Table 1",2 µg/mL
same,MIC,[7]; [12],4 µg/mL
same,MIC,[7]; [13],16 µg/mL
same,MIC,[7]; [14],8 µg/mL
same,MIC,[7]; [15],> 16 µg/mL
same,MIC,[7]; [16],0.5 µg/mL
same,MIC,[7]; [17],8 µg/mL
same,MIC,[7]; [18],8 µg/mL
same,MIC,[7]; [19],8 µg/mL
same,MIC,[7]; [20],8 µg/mL
same,MIC,[7]; [21],8 µg/mL
same,MIC,[7]; [22],> 16 µg/mL
same,MIC,[7]; [23],8 µg/mL
same,MIC,[7]; [24],8 µg/mL
same,MIC,[7]; [25],8 µg/mL
same,MIC,[7]; [26],> 16 µg/mL
same,MIC,[7]; [27],> 16 µg/mL
same,MIC,[7]; [28],4 µg/mL
Cl.O=c1cc(NCc2ccc(Cl)c(Cl)c2)[nH]c(=O)n1CCOCCN1CCOCC1 [Compound 240D],MIC,"[1]; Bifidobacterium breve, Bi. Breve, Strain no. 3967 (ATCC strain), Table 3",> 32 µg/mL
same,MIC,"[2]; Eu. Lentum, Strain no. 1274 (ATCC strain), Table 3",> 32 µg/mL
same,MIC,"[3]; Bi. Longum, Strain no. 3968 (ATCC strain), Table 3",> 32 µg/mL
same,MIC,"[4]; B. fragilis, Strain no. 0123 (ATCC strain), Gram-negative (control), Table 3",> 32 µg/mL
same,MIC,"[5]; Strain no. 0681, Table 3",16 µg/mL
same,MIC,"[6]; Strain no. 1722 (ATCC strain), Table 3",> 32 µg/mL
same,MIC,"[7]; C. diff., Strain no. 3580, Table 3",32 µg/mL
same,MIC,"[7]; C. diff., Strain no. 3581, Table 3",8 µg/mL
same,MIC,"[7]; C. diff., Strain no. 3582, Table 3",32 µg/mL
same,MIC,"[7]; C. diff., Strain no. 3584, Table 3",8 µg/mL
same,MIC,"[7]; C. diff., Strain no. 3585, Table 3",16 µg/mL
same,MIC,"[7]; C. diff., Strain no. 3586, Table 3",8 µg/mL
same,MIC,"[7]; C. diff., Strain no. 3587, Table 3",16 µg/mL
same,MIC,"[7]; C. diff., Strain no. 3588, Table 3",2 µg/mL
same,MIC,"[7]; C. diff., Strain no. 3589, Table 3",16 µg/mL
same,MIC,"[7]; C. diff., Strain no. 4381 (ATCC strain), Table 3",8 µg/mL
CCc1cc(Nc2cc(=O)n(CCCCO)c(=O)[nH]2)ccc1C [Compound 179E],MIC,[1]; [8],> 32 µg/mL
same,MIC,[2]; [9],> 32 µg/mL
same,MIC,[3]; [10],> 32 µg/mL
same,MIC,[4]; [11],> 32 µg/mL
same,MIC,"[5]; Micromyx Number 0681, Table 1",32 µg/mL
same,MIC,"[6]; Micromyx Number 1722, Table 1",32 µg/mL
same,MIC,[7]; [12],16 µg/mL
same,MIC,[7]; [13],16 µg/mL
same,MIC,[7]; [14],4 µg/mL
same,MIC,[7]; [15],8 µg/mL
same,MIC,[7]; [16],16 µg/mL
same,MIC,[7]; [17],4 µg/mL
same,MIC,[7]; [18],16 µg/mL
same,MIC,[7]; [19],4 µg/mL
same,MIC,[7]; [20],8 µg/mL
same,MIC,[7]; [21],1 µg/mL
same,MIC,[7]; [22],16 µg/mL
same,MIC,[7]; [23],8 µg/mL
same,MIC,[7]; [24],8 µg/mL
same,MIC,[7]; [25],16 µg/mL
same,MIC,[7]; [26],4 µg/mL
same,MIC,[7]; [27],4 µg/mL
same,MIC,[7]; [28],4 µg/mL
